The results in this text go back to US7915050B2, “Regulatory genes for plant differentiation and growth, and use of the same” (National University Corporation Nagoya University, priority 2005, dated 2011).

Assay [1] addresses T1, AtGID1a (Arabidopsis thaliana, UniProt Q9MAA7).
T1 construct: made in house; host or cells: E. coli
T1 sequence (Q9MAA7 1-345): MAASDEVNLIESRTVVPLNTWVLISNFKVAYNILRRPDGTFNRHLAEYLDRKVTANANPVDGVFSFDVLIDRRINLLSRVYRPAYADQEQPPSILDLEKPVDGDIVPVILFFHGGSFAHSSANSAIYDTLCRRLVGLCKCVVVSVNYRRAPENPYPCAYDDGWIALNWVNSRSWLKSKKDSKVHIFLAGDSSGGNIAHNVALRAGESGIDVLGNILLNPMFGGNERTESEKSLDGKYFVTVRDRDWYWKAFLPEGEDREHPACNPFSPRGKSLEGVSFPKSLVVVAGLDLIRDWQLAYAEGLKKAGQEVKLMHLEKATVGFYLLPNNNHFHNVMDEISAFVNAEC
The assay can be described thus: Scatchard analysis of GA binding of AtGID1a. The note with it: equilibrium conditions. Here is the method: Panels A) to C) depict the results of Scatchard plot analyses for the GA binding of AtGID1. Results for AtGID1a (A), AtGID1b (B), and AtGID1c (C) are shown. The Kd values for 16,17-dihydro-GA4 was determined by adding various concentrations of GA to the assay mixture. Standard deviation (SD) was determined from these three independent measurements. The insets show time-course characteristics for the GA binding of AtGID1 and replacement (arrow) using an excess amount of non-labeled GA4 (0.125 mM). Panels D) to F) depict the GA binding activities of AtGID1 under different pH conditions. Results for AtGID1a (D), AtGID1b (E), and AtGID1c (F) are shown. The non-specific binding activity (UB) was determined by adding 0.125 mM GA4 to the assay solution, and this was subtracted from the total binding activity (B) to determine the specific binding activity (B-UB).
Specifically, the coding region of the AtGID1 gene was amplified by PCR using specific primers designed based on the full-length cDNA sequence of the AtGID1 gene and having appropriate restriction sites at each end. […]
The kinetics, ligand selectivity, and pH dependence of GA binding for the three AtGID1s identified as described above were examined using the tritiated GA4 derivative 16,17-dihydro-GA4. […] Furthermore, the kinetics of GA binding of each AtGID1 was analyzed under equilibrium conditions of GA at various concentrations.

Assay [2] deals with T1, AtGID1a. Nature of the assay: Competitive ability of GA in AtGID1-GA binding (AtGID1a). Here is the method: (§1) In the gibberellin-binding assay, [1,2,16,17-^3H4]16,17-dihydro-GA4 was used as a labeled GA4. In vitro GA-binding assays were carried out using previous methods with some modifications (Nakajima, M. et al., Biochem. Biophys. Res. Comm. 241, 782-786 (1997)). The purified recombinant GID1 protein (400 pmol) was dissolved in 300 μl of binding buffer [20 mM Tris-HCl (pH 7.6), 5 mM 2-mercaptoethanol, and 0.1 M NaCl], and incubated with 100 μl of ^3H4-16,17-dihydroGA4 (6 pmol) for two hours at 25° C., either in the absence of non-labeled GA4 (total binding) or in the presence of 833-fold excess non-labeled GA4 (total non-specific binding). Then, 0.1 ml of the reaction mixture was loaded onto a NAP-5 column (Amersham Biosciences, Piscataway, N.J.). The eluate of the binding buffer (0.6 ml) was discarded, the subsequent eluate (0.2 ml) was collected, and the radioactivity was measured. The specific binding activity, reflecting the number of displaceable GA binding sites, was calculated by subtracting the amount of nonspecific binding from the amount of total binding. The same as above can also be carried out for other GAs.
Specifically, the coding region of the AtGID1 gene was amplified by PCR using specific primers designed based on the full-length cDNA sequence of the AtGID1 gene and having appropriate restriction sites at each end. After confirmation by sequence analysis, each cDNA fragment was ligated into pET32a vector (Novagen/Merck Biosciences, Madison, Wis., USA) or pGEX-4T-2 vector (Amersham Biosciences, Piscataway, N.J., USA; currently, a part of GE Healthcare). The production of recombinant proteins was confirmed by SDS-PAGE; vector cassettes were used as negative controls. GA binding assays were carried out similarly as described above using [1,2,16,17-^3H4]-16,17-dihydro-GA4 (4.55 TBq/mmol), which was custom-made by DuPont/NEN (Boston, Mass., USA). Non-labeled GA4 (1.25 mM) was used to measure non-specific binding. Saturation experiments for the kinetic analysis were carried out using ten concentrations of 16,17-dihydro-GA4 within the range of 25 to 1,500 nM. Competition assays were performed using [1,2,16,17-^3H4]-16,17-dihydro-GA4 at 15 nM and five concentrations of the non-labeled competitor. Recombinant RGA and GAI proteins were prepared using pET32a by a previously described method.
The ligand selectivity of each AtGID1 was examined by observing the competitive inhibition, by the addition of GA to the assay mixtures, of the binding between the recombinant proteins and tritiated 16,17-dihydro-GA4 (Table 2). The ligand selectivity was evaluated using the concentration of GA that inhibits 50% of the tracer (15 nM) binding (IC50 value).

The target of assay [3] is T2, GID1 (Oryza sativa subsp. japonica, UniProt Q6L545).
T2 construct: GST (tag of vector pGEX-4T) (N); made in house
T2 sequence (Q6L545 whole entry): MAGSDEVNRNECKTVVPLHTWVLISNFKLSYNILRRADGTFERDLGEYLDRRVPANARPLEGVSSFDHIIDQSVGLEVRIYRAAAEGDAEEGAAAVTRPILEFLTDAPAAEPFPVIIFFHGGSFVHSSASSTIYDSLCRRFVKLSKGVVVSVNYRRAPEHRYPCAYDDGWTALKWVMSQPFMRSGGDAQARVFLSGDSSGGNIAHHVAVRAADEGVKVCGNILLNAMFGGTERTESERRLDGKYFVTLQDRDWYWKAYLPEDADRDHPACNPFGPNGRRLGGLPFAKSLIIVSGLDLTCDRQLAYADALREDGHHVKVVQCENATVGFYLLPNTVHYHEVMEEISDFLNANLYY
Nature of the assay: Competition of various GAs in the binding of the 3H-GA4 derivative to GID1 protein. Details: species or system rice. Here is the method:
as §1
Thus, it was postulated that, like GID2, GID1 is involved in the degradation of SLR1, or that GID1 functions upstream of SLR1 in GA signaling. […] Based on this phenotypic characteristic of gid1, it was predicted that GID1 was involved in GA perception. To verify this possibility, the interactions between GID1 and radioisotope-labeled GA was directly examined using non-equilibrium gel filtration (Nakajima, M. et al., Biochem. Biophys. Res. Comm. 241, 782-786 (1997)). […] Next, ligand specificity of GID1 was tested by using competition between the tritiated GA4 derivative and various GAs. The concentration of each GA that is required for a 50% inhibition (IC50) of the binding of the tritiated GA4 derivative to GID1 is shown in Table 1. […] The IC50 value for each of these GAs was well consistent with their physiological activity.

The structures appear in SMILES notation. pIC50, pKd: −log10 of the molar value.

In turn, `CC1C[C@]23C[C@H]1CCC2[C@]12CC[C@H](O)[C@](C)(C(=O)O1)[C@H]2[C@@H]3C(=O)O` (stereo partly drawn) [H2-GA4, 16,17-dihydro-GA4] had a pKd in assay [1] of 5.70. In addition, the “relative value, taking the value for GA4 as 100” value in assay [2] is on record as “(8) %”. Further, the pIC50 is 5.40 in assay [2] (tracer 15 nM, mean of at least two measurements) and 6.00 in assay [3] (competition with tritiated GA4 derivative for binding to recombinant GID1, read-out: IC50 (concentration required for 50% inhibition)). Besides, in assay [3], the “affinity of recombinant GID1 for the GA (in words)” value was “high affinity”. Moreover, in assay [3] (relative competition, GA4 given as 100), the “Rel % (relative value)” value is “(20) %”.

For orientation: pKd means the negative decadic logarithm of the Kd, by convention in mol/L. Read a high pKd as a small Kd.
